These results are taken from publication PMC7961048, “Hierarchized phosphotarget binding by the seven human 14-3-3 isoforms” (Nature Communications, 2021).

Starred links: 1 amine or outer side, 2 acyl side, 3 side chain; linkers in the order of their positions; H or OH if unused. Non-standard residues stand in square brackets, D forms with d. Residues, ends and D or L forms follow the SMILES beside them. *: point of attachment. X1 = O=C(CCCC[C@@H]1SC[C@@H]2NC(=O)N[C@@H]21)NCCCOCCOCCOCCCN*; pT = C[C@@H](OP(=O)(O)O)[C@H](N)C(=O)O; Suc = O=C(CCC(=O)[*:2])[*:1]

As usually defined, the Kd is a measure of binding affinity in units of concentration. Read a low Kd as higher affinity.

Common to all, as to format: binding
In experiment [1] the target is T1, 14-3-3ε (Homo sapiens, UniProt P62258).
T1 construct: Plasmids containing the cDNAs of the full-length 14-3-3 isoforms ε, γ, and ζ were received; made in house; host or cells: E. coli BL21(DE3)
T1 sequence (P62258 1-255): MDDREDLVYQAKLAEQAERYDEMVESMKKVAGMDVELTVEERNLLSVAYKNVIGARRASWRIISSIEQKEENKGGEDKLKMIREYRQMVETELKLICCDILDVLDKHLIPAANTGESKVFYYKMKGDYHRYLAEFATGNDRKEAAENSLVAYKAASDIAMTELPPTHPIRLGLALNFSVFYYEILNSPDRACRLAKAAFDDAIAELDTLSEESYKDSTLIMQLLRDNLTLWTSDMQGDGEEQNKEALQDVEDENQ
The experiment can be described thus: biochemical.

The target of experiment [2] is T2, 14-3-3ζ (Homo sapiens, UniProt P63104).
T2 construct: Plasmids containing the cDNAs of the full-length 14-3-3 isoforms ε, γ, and ζ were received; made in house; host or cells: E. coli BL21(DE3)
T2 sequence (P63104 1-245): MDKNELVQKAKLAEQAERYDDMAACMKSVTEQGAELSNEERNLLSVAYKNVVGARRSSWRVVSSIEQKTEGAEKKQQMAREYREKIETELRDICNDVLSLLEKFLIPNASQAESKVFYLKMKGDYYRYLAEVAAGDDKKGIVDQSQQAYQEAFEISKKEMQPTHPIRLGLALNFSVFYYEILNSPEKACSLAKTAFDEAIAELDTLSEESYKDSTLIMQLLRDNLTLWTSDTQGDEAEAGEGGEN
Put plainly: biochemical.

In experiment [3] the target is seven human 14-3-3 isoforms. The experiment can be described thus: Affinities averaged or compared across the 14-3-3 family (ΔΔGav, KD ratios, affinity maps). The note with it: for KD ratios, compared to LRRK2 pS910/pS935, average: average over the isoforms. From the text:
Former studies have measured the binding of the seven human 14-3-3 isoforms to unrelated phospho-motifs derived from Cystic Fibrosis Transmembrane Conductance Regulator (CFTR), Leucine-Rich Repeat Kinase 2 (LRRK2), Potassium channel subfamily K members (TASK1/3), C-Raf, the p65 subunit of the NF-κB transcription factor, and from Ubiquitin carboxyl-terminal hydrolase 8 (USP8), representing a wide variety of different 14-3-3-binding motifs, including C-terminal, internal, monovalent, or divalent motifs[40],[44]–[48].
(gray background). The color scale is either based on affinity values or on KD ratios. √ denotes affinities weaker than the limit of quantitation of the experimental assays. b Same map as in a, normalized to the strongest 14-3-3-binding motif. […] Source data are provided as a Source Data file.
All binding data and the obtained fits are provided as Supplementary Data File 1.

For `CC(C)C[C@H](NC(=O)[C@H](CCC(N)=O)NC(=O)[C@@H](NC(=O)[C@H](CCC(=O)O)NC(=O)[C@H](CCCNC(=N)N)NC(=O)[C@H](CCCNC(=N)N)NC(=O)[C@@H](NC(=O)[C@H](CCCNC(=N)N)NC(=O)[C@H](CO)NC(=O)[C@H](CO)NC(=O)CCC(=O)NCCCOCCOCCOCCCNC(=O)CCCC[C@@H]1SC[C@@H]2NC(=O)N[C@@H]21)[C@@H](C)O)[C@@H](C)OP(=O)(O)O)C(=O)O` [pHPV16E6], in experiment [1], the Kd is above 300 µM. Moreover, the “Binding affinities (KD) of various 14-3-3-binding motifs, 14-3-3ε” value in experiment [1] (Figure 4 panel a, unit from the colour scale line, motifs measured in this work) is recorded as “√”. The compound also displayed a Kd in experiment [2] of 73.6 ± 19.1 µM. Moreover, in experiment [3] (Figure 4 panel b), the “KD ratios, compared to LRRK2 pS910/pS935, 14-3-3β” value is on record as 7536; the “KD ratios, compared to LRRK2 pS910/pS935, 14-3-3γ” value came to 11625; the “KD ratios, compared to LRRK2 pS910/pS935, 14-3-3ζ” value was found to be 15333; the “KD ratios, compared to LRRK2 pS910/pS935, 14-3-3η” value stood at 16771. Moreover, in experiment [3] (Figure 4 panel b), the “KD ratios, compared to LRRK2 pS910/pS935, 14-3-3τ” value is 15158 and the “KD ratios, compared to LRRK2 pS910/pS935, average” value came out at 13000. In experiment [3] (Figure 4 panel c), the “KD ratios, compared to 14-3-3γ, 14-3-3β” value is on record as 4.27; the “KD ratios, compared to 14-3-3γ, 14-3-3γ” value was 1.00; the “KD ratios, compared to 14-3-3γ, 14-3-3ζ” value is recorded as 1.98; the “KD ratios, compared to 14-3-3γ, 14-3-3η” value amounted to 2.16. Moreover, the “KD ratios, compared to 14-3-3γ, 14-3-3τ” value in experiment [3] (Figure 4 panel c) was determined as 3.87. Also, the “binding to 14-3-3 proteins” value in experiment [3] (competitive FP, seven MBP-fused full-length 14-3-3 isoforms, result in words) is “detectably bound”.
With `CC(C)[C@H](NC(=O)[C@H](C)NC(=O)[C@@H](NC(=O)[C@H](CCC(=O)O)NC(=O)[C@H](CCCNC(=N)N)NC(=O)[C@H](CCCNC(=N)N)NC(=O)[C@@H](NC(=O)[C@@H]1CCCN1C(=O)[C@H](CCCCN)NC(=O)[C@H](CO)NC(=O)CCC(=O)NCCCOCCOCCOCCCNC(=O)CCCC[C@@H]1SC[C@@H]2NC(=O)N[C@@H]21)[C@@H](C)O)[C@@H](C)OP(=O)(O)O)C(=O)O` [pHPV35E6E-1A] ({X1-Suc}-SKPTRRE[pT]AV-OH), binding in experiment [1] was characterised by a dissociation constant (Kd) of 31.9 µM. The compound further showed a dissociation constant Kd in experiment [2] of 17.6 µM. For the same compound, in experiment [3] (Figure 4 panel b), the “KD ratios, compared to LRRK2 pS910/pS935, 14-3-3β” value is 957.35; the “KD ratios, compared to LRRK2 pS910/pS935, 14-3-3γ” value is given as 2909.38; the “KD ratios, compared to LRRK2 pS910/pS935, 14-3-3ζ” value came to 3666.67; the “KD ratios, compared to LRRK2 pS910/pS935, 14-3-3η” value is recorded as 2583.33. Also, in experiment [3] (Figure 4 panel b), the “KD ratios, compared to LRRK2 pS910/pS935, 14-3-3τ” value amounted to 2263.16 and the “KD ratios, compared to LRRK2 pS910/pS935, average” value was found to be 2200.00. Moreover, the “KD ratios, compared to LRRK2 pS910/pS935, 14-3-3ε” value in experiment [3] (Figure 4 panel b, 14-3-3ε) was found to be 2572.58. The “KD ratios, compared to LRRK2 pS910/pS935, 14-3-3σ” value in experiment [3] (Figure 4 panel b, 14-3-3σ) amounted to 727.72. Also, in experiment [3] (Figure 4 panel c), the “KD ratios, compared to 14-3-3γ, 14-3-3β” value stood at 2.17; the “KD ratios, compared to 14-3-3γ, 14-3-3γ” value came to 1.00; the “KD ratios, compared to 14-3-3γ, 14-3-3ζ” value is on record as 1.89; the “KD ratios, compared to 14-3-3γ, 14-3-3η” value was determined as 1.33. For the same compound, the “KD ratios, compared to 14-3-3γ, 14-3-3τ” value in experiment [3] (Figure 4 panel c) came out at 2.31. In experiment [3] (Figure 4 panel c, 14-3-3ε), the “KD ratios, compared to 14-3-3γ, 14-3-3ε” value was 3.43. Moreover, the “KD ratios, compared to 14-3-3γ, 14-3-3σ” value in experiment [3] (Figure 4 panel c, 14-3-3σ) is listed as 4.74.
